Experimental data taken from article PMC5218480 (PLoS ONE, 2017).

Test system: MV-4-11 cells
Assay: Gene expression microarray analysis (Affymetrix PrimeView) and GSEA
Assay type: cell-based, human
Details: MV-4-11, 48 hours, 1 μM each

SMILES: Nc1ccc(-c2cccs2)cc1NC(=O)c1ccc2c(c1)cc(C1CC1)n2CCN1CCOCC1 [ACY-1035]
- genes up-regulated greater than 2-fold relative to vehicle control: 386 genes
